From article PMC6137088, “The Role of Outer Membrane Proteins and Lipopolysaccharides for the Sensitivity of Escherichia coli to Antimicrobial Peptides” (Frontiers in Microbiology, 2018)
Where no end group is shown, it is not given here.

Legend:
[1] = tested on: Y. ruckeri 392/2003; test: MIC testing (CLSI broth microdilution); assay type: cell-based; conditions: Table 6, triplicates
Experimental: (§1) The minimum inhibitory concentrations (MICs) of the AMPs were measured in 96-well microtiter plates according the Clinical and Laboratory Standards Institute [CLSI, formerly National Committee for Clinical Laboratory Standards (NCCLS)] (Wikler et al., [2009]). Liquid Mueller-Hinton-II medium containing increasing concentrations of AMPs is inoculated with a defined number of cells (~10^5 CFUs/ml) in 96-well microtiter plates (polypropylene). Each microtiter plate includes a positive growth control and a negative control (sterile control). After incubation, the minimal inhibitory concentration (MIC) is determined by the lowest concentration showing no visible growth. All plates were incubated for 16–20 h.

[2] = tested on: S. typhimurium LT2; test: MIC testing (CLSI broth microdilution); assay type: cell-based; conditions: Table 6, triplicates
Experimental: as §1

[3] = tested on: E. coli ATCC25922 ΔwaaG; assay type: cell-based, Escherichia coli; conditions: Table 6, triplicates
Source text: (§2) The E. coli strains 470, F632, F653 and F2513 were kindly provided by Prof. H. Brade and Prof. S. Muller-Loennies, Research Center Borstel, Leipniz-Center for Medicine and Biosciences, Germany. E. coli BW25113 (CGSC#:7636), a derivative of F^−, λ^− E. coli K12 strain BD792 is the wild-type strain which was used in the generation of the KEIO collection and ordered from the Coli Genetic Stock Centre (CGSC, Yale University). E. coli JW3596, E. coli JW3024, E. coli JW3595, E. coli JW3606, E. coli JW0212, E. coli JW1667, E. coli JW0554, E. coli JW3605 and E. coli JW3600 are isogenic mutants of waaC, waaE, waaF, waaG, gmhA (lpcA), lpp, ompT, waaP, or waaY derived from the parental strain E. coli BW25113 and were ordered from the KEIO collection (Baba et al., [2006]). E. coli ATCC25922 is a clinical isolate, serotype O6, often used as control strain in antimicrobial susceptibility testing was ordered from the ATCC strain collection. All strains were grown in Mueller-Hinton-II medium and incubation took place aerobically at 37°C for 18–20 h.
as §1

[4] = tested on: E. coli ATCC25922; assay type: cell-based, Escherichia coli; conditions: Table 6; E. coli ATCC25922 wild-type; triplicates
Source text: as §2, §1

[5] = tested on: E. coli ATCC25922 ΔwaaE; assay type: cell-based, Escherichia coli; conditions: Table 6, triplicates
Source text: as §2, §1

[6] = tested on: E. coli ATCC25922 ΔwaaC; assay type: cell-based, Escherichia coli; conditions: Table 6, triplicates
Source text: as §2, §1

[7] = tested on: E. coli ATCC25922 ΔwaaF; assay type: cell-based, Escherichia coli; conditions: Table 6, triplicates
Source text: as §2, §1

[8] = tested on: E. coli F632 (R2); assay type: cell-based, Escherichia coli; conditions: Table 4; E. coli F632 (R2 prototype, rough LPS); triplicates
Source text: as §2, §1

[9] = tested on: E. coli BW25113 waaF::kan; assay type: cell-based, Escherichia coli; conditions: Table 3; BW25113 waaF::kan; Mueller-Hinton-II, 16–20 h; duplicates (*) or triplicates
Source text: as §2, §1

[10] = tested on: E. coli F2513 (R4); assay type: cell-based, Escherichia coli; conditions: Table 4; E. coli F2513 (R4 prototype, rough LPS); triplicates
Source text: as §2, §1

[11] = tested on: E. coli F470 (R1); assay type: cell-based, Escherichia coli; conditions: Table 4; E. coli F470 (R1 prototype, rough LPS); triplicates
Source text: as §2, §1

[12] = tested on: E. coli BW25113 waaE::kan; assay type: cell-based, Escherichia coli; conditions: Table 3; BW25113 waaE::kan; Mueller-Hinton-II, 16–20 h; duplicates (*) or triplicates
Source text: as §2, §1

[13] = tested on: E. coli BW25113 waaC::kan; assay type: cell-based, Escherichia coli; conditions: Table 3; BW25113 waaC::kan; Mueller-Hinton-II, 16–20 h; duplicates (*) or triplicates
Source text: as §2, §1

[14] = tested on: E. coli BW25113 gmhA::kan; assay type: cell-based, Escherichia coli; conditions: Table 3; BW25113 gmhA::kan; Mueller-Hinton-II, 16–20 h; duplicates (*) or triplicates
Source text: as §2, §1

[15] = tested on: E. coli BW25113 ompT::kan; assay type: cell-based, Escherichia coli; conditions: Table 3; BW25113 ompT::kan; Mueller-Hinton-II, 16–20 h; duplicates (*) or triplicates
Source text: as §2, §1

[16] = tested on: E. coli F653 (R3); assay type: cell-based, Escherichia coli; conditions: Table 4; E. coli F653 (R3 prototype, rough LPS); triplicates
Source text: as §2, §1

[17] = tested on: E. coli BW25113; assay type: cell-based, Escherichia coli; conditions: Table 3; E. coli BW25113 wild type; Mueller-Hinton-II, ~10^5 CFUs/ml, 16–20 h; duplicates (*) or triplicates
Source text: as §2, §1

[18] = tested on: E. coli BW25113 waaG::kan; assay type: cell-based, Escherichia coli; conditions: Table 3; BW25113 waaG::kan; Mueller-Hinton-II, 16–20 h; duplicates (*) or triplicates
Source text: as §2, §1

GLRKRLRKFRNKIKEKDKKIGQKIQGLLPKLAPRTDY [L17D]
Antimicrobial activity: MIC [1]: ≥64 µg/mL | Antimicrobial activity: MIC [2]: ≥64 µg/mL | Antimicrobial activity: MIC [3]: ≥64 µg/mL | Antimicrobial activity: MIC [4]: ≥64 µg/mL | Antimicrobial activity: MIC [5]: ≥64 µg/mL | Antimicrobial activity: MIC [6]: ≥64 µg/mL | Antimicrobial activity: MIC [7]: ≥64 µg/mL

GLRKRLRKFRNKIKEKLKKIGQKDQGLLPKLAPRTDY [I24D]
Antimicrobial activity: MIC [1]: ≥64 µg/mL | Antimicrobial activity: MIC [2]: ≥64 µg/mL | Antimicrobial activity: MIC [3]: ≥64 µg/mL | Antimicrobial activity: MIC [4]: ≥64 µg/mL | Antimicrobial activity: MIC [5]: 16 µg/mL | Antimicrobial activity: MIC [6]: 16 µg/mL | Antimicrobial activity: MIC [7]: 16 µg/mL

GLRKRLRKFRNKDKEKLKKIGQKIQGLLPKLAPRTDY [I13D]
Antimicrobial activity: MIC [1]: ≥64 µg/mL | Antimicrobial activity: MIC [2]: ≥64 µg/mL | Antimicrobial activity: MIC [3]: ≥64 µg/mL | Antimicrobial activity: MIC [4]: ≥64 µg/mL | Antimicrobial activity: MIC [5]: ≥64 µg/mL | Antimicrobial activity: MIC [6]: ≥64 µg/mL | Antimicrobial activity: MIC [7]: ≥64 µg/mL

KLRKLFRKLLKLIRKLLR [Cap11-1-18 m^2]
Antimicrobial activity (MIC) [8]: 16 to 32 µg/mL | MIC [9]: 8 µg/mL | Antimicrobial activity (MIC) [10]: 8 to 16 µg/mL | Antimicrobial activity (MIC) [11]: 32 µg/mL | MIC [12]: 8 µg/mL | MIC [13]: 8 µg/mL | MIC [14]: 8 ^* μg/ml | MIC [15]: 8 ^* μg/ml | Antimicrobial activity (MIC) [16]: ≥32 µg/mL | MIC [17]: 8 to 16 µg/mL | MIC [18]: 8 µg/mL

GLRKRLRKFRNKIKEKLKKIGQKNQGLLPKLAPRTDY [I24N]
Antimicrobial activity: MIC [1]: ≥64 µg/mL | Antimicrobial activity: MIC [2]: 32 µg/mL | Antimicrobial activity: MIC [3]: 16 µg/mL | Antimicrobial activity: MIC [4]: ≥64 µg/mL | Antimicrobial activity: MIC [5]: 16 µg/mL | Antimicrobial activity: MIC [6]: 8 µg/mL | Antimicrobial activity: MIC [7]: 8 µg/mL

GLRKRLRKFRNKMKEKLKKIGQKIQGLLPKLAPRTDY [I13M]
Antimicrobial activity: MIC [1]: 4 µg/mL | Antimicrobial activity: MIC [2]: 8 µg/mL | Antimicrobial activity: MIC [3]: 4 µg/mL | Antimicrobial activity: MIC [4]: 8 µg/mL | Antimicrobial activity: MIC [5]: 8 µg/mL | Antimicrobial activity: MIC [6]: 4 µg/mL | Antimicrobial activity: MIC [7]: 4 µg/mL

GLRKRLRKFRNKIKEKLKKNGQKIQGLLPKLAPRTDY [I20N]
Antimicrobial activity: MIC [1]: ≥64 µg/mL | Antimicrobial activity: MIC [2]: 8 to 16 µg/mL | Antimicrobial activity: MIC [3]: 16 µg/mL | Antimicrobial activity: MIC [4]: ≥64 µg/mL | Antimicrobial activity: MIC [5]: 16 µg/mL | Antimicrobial activity: MIC [6]: 16 µg/mL | Antimicrobial activity: MIC [7]: 8 µg/mL

GLRKRPRKFRNKIKEKLKKIGQKIQGLLPKLAPRTDY [L6P]
Antimicrobial activity: MIC [1]: 64 µg/mL | Antimicrobial activity: MIC [2]: 8 µg/mL | Antimicrobial activity: MIC [3]: 4 µg/mL | Antimicrobial activity: MIC [4]: 8 µg/mL | Antimicrobial activity: MIC [5]: 8 µg/mL | Antimicrobial activity: MIC [6]: 4 µg/mL | Antimicrobial activity: MIC [7]: 4 µg/mL
